Laboratory results reported in patent US6663858B1, “In Vivo gene transfer using implanted retroviral producer cells” (The Regents of the University of California, priority 1991, dated 2003).
In brackets after ≈: the same amount, converted by molar mass. Several values for one entry are separate records, joined by “and”; a condition that tells them apart may be missing. Identical values can stand only once. Entries after “also recorded” stand apart in the source; their conditions may differ.

Experiments:
9 L brain tumors [1] = assay: Short-term (17 days) 9 L brain tumor volume after HSV-TK producer cell implantation and GCV; assay type: in vivo, Fischer 344 rats
Protocol: (§1) Tumor Cell and Producer Cell Implantation. The 9 L cells were maintained in Dulbecco's modified Eagle's medium with 10% fetal bovine serum, penicillin G (100 units/ml), streptomycin sulfate (100 μg/ml). Brain tumors were established in adult female Fischer 344 rats which were housed and handled in accordance with National Institutes of Health guidelines.
(§2) In all studies tumors were implanted by an intracerebral injection of 2×10^5 tumor cells into the region of the right caudate nucleus (3 mm lateral, 1 mm anterior to bregma, 4 mm ventral) (Paxinos, G. & Watson, C. (1987) The Rat Brain in Stereotaxic Coordinates (University Press ***).
Animals in short-term studies underwent a second surgery 3 days after tumor implantation, at which time retroviral producer cells (either 2×10^5 in 4 μl or 2×10^6 in 8 μl, representing an equal, number (1×) or 10 times (10×) the number of injected tumor cells, respectively) were implanted into the established brain tumors and allowed to grow with brain tumor cells for 7 days. Ten days after tumor implantation, subsets of animals were given 0.2 ml intraperitoneal injections of GCV (Syntex, Palo Alto, Calif.) 50 mg/kg once a day for 7 or 14 days. Animals in the short-term experiments were sacrificed after 7 days of GCV administration (17 days after tumor implantation) and then perfused with 4% paraformaldehyde.
Brain Tumor Analysis. Short-term treatment response was determined by comparing individual brain tumor volumes measured by postmortem stereologic study in groups containing a minimum of five animals.
(§3) Long-term results were studied in 90-day survival studies with tumor volumes determined in long-term survivors. Stained brain sections were examined and tumor volumes were quantified by stereologic methods (Gundersen, H. J. G., Bagger, P. & Bendtsen, T. F. (1988) APMIS ***96, 857-881). Tumor volumes were compared by the Mann-Whitney U test. In long-term survival experiments (90 days), animals were observed daily and survival data were analyzed by Kaplan-Meier analysis with the Mantel-Cox statistic.

9 L brain tumors [2] = assay: Long-term (90-day) survival of rats with 9 L brain tumors after HSV-TK producer cells and GCV; assay type: in vivo, Fischer 344 rats; details: for treated animals surviving 90 days: both long-term trials combined, HSV-TK producer cells plus GCV
Protocol: as §1, §2
Two trials of long-term (90-day) survival were performed. In the first, producer cells (2×10^5), equal to the initial number of tumor cells implanted) were grafted into 3-day-old brain tumors. GCV treatments were started in 12 animals 7 days later (tumor day 10) and continued for 7 days; 8 animals received no GCV. In the second trial, 2×10^5 or 2×10^6 producer cells in 50 μl (representing 1× or 10× the number of injected tumor cells, respectively) were grafted into 3-day-old established brain tumors of 10 animals per group. GCV treatments started 7 days later and were administered for 14 days.
as §3

9 L tumor cells = assay: Repeat tumor challenge in long-term survivors; assay type: in vivo, Fischer 344 rats
Text: Repeat Tumor Challenge. Four animals with long-term tumor regression were studied with repeat tumor challenges 90 days after the initial tumor implantation. Animals underwent repeated intracerebral injections of 2×10^5 9 L tumor cells into the left caudate nucleus and injections of 1×10^6 9 L tumor cells into the right flank. Five normal, naive rats received identical injections of 9 L tumor cells. Animals were sacrificed and perfused 17 days later to determine resulting tumor volumes.

9 L brain tumors [3] = details: no producer cell injections; Barba et al. 1993; cited from earlier work
[4] = test system: C6 glial tumor cells infected with STK, NTK or μTK vector; assay: Survival of C6 glioma clones carrying HSV-TK vectors in increasing concentrations of acyclovir; assay type: cell-based; details: C6 clones infected with each vector (STK, NTK, μTK); acyclovir 0.1 to 100 μg/ml for 3 days
Protocol: Murine retroviral vectors carrying the HSV-TK gene, the STK, NTK, and μTK vectors, were obtained from Dr. F. L. Moolten. The plasmid forms of the vectors were transfected into −2 cells (Mann et al., Cell 33:153-159 (1983)); selection with 1 mg/ml of the neomycin analog G418 permitted the isolation of clone producer lines that yielded viruses capable of transducing G418 resistance and HSV-TK activity. Virus titers were determined by the limiting dilution method and found to be greater than 50 pfu/cell. As expected with −2 cells, no replication-competent virus was detected.
The replicative defective viruses produced by −2 cells were used to infect C6 glial tumor cells. The cells to be infected were grown in DME plus 10% fetal bovine serum plus 4 μg/ml of polybrene and were grown to about 60-70% confluence in a T75 flask or about 2×10^6 cells/ml. The cells were infected with about 100 pfu/cell of virus. The infected cells were cultured for 24 hours with Dulbecco's Medium containing 10% fetal bovine serum and antibiotics; afterwards they were exposed to 1 mg of G418/ml to select for cells that expressed vector-derived genes.
Clones resulting from infection of C6 glial cells with each of the vectors were exposed to acyclovir at concentrations ranging from 0.1 to 100 μg/ml for 3 days. Each vector rendered the glial cells sensitive to acyclovir.

cells carrying HSV-TK = assay: 3-day cytotoxicity assay, cells carrying HSV-TK; assay type: cell-based; details: 72 h, read-out: inhibitory dose for 50% of the cells
Protocol: (§4) Similar results were obtained in a 3-day cytotoxicity assay; the inhibitory dose of acyclovir for 50% of the cells lacking the HSV-TK gene was greater than […] for cells carrying HSV-TK.

[5] = test system: cells lacking the HSV-TK gene; assay: 3-day cytotoxicity assay, cells lacking the HSV-TK gene; assay type: cell-based; details: 72 h, read-out: inhibitory dose for 50% of the cells
Protocol: as §4

[6] = HSV-TK producer cells plus GCV, 17-day-old tumors

Compound	tumor volume / tumor regression versus rats not treated with GCV (9 L brain tumors [1]; HSV-TK producer cells (1:1 or 10:1) implanted day 3, GCV 50 mg/kg per day i.p. for 7 days, day 17)	treated animals with focal regression of part of the tumor adjacent to unaffected tumor (9 L brain tumors [1]; [6])	treated animals with unaffected tumors (9 L brain tumors [1]; [6])	animals alive after 90 days in each experimental group, second trial (9 L brain tumors [2]; 1× or 10× producer cells, 10 animals per group, GCV for 14 days)	treated animals surviving 90 days, first trial (9 L brain tumors [2]; 2×10^5 producer cells, GCV for 7 days from tumor day 10, none of 8 untreated survived longer than 25 days)	tumor volume in the third surviving treated animal, first trial (9 L brain tumors [2]; 90 days)	residual tumor volume in two of the surviving treated animals, first trial (9 L brain tumors [2]; 90 days, small intracerebral cysts)	survival, GCV for 7 versus 14 days (9 L brain tumors [2]; both groups receiving 1× producer cells)	survival, 1× versus 10× producer cells (9 L brain tumors [2]; both groups receiving GCV for 14 days)	treated animals surviving 90 days (9 L brain tumors [2])	treated animals surviving 90 days (9 L brain tumors [2]; controls 0/8)	survival of treated versus control animals (9 L brain tumors [2]; combined treated groups, Kaplan-Meier, P<0.002)	flank tumor nodules after repeat challenge (9 L tumor cells; 1×10^6 9 L cells into right flank, 17 days, flank tumors in four of five naive rats)	tumor volume at the site of the secondary tumor cell implants (left hemisphere) (9 L tumor cells; 2×10^5 9 L cells, 17 days after repeat challenge, naive animals 129-169)	tumor volume at the site of the initial tumor cell implantation in long-term survivors (9 L tumor cells; four long-term survivors of second trial, 17 days after repeat challenge)	growth of repeat tumor injections in rats surviving 90 days (9 L tumor cells; repeat 9 L injections after HSV-TK producer cells and GCV, tumors grew in naive rats)	tumor regression in animals treated with GCV without producer cell injections (9 L brain tumors [3])	sensitivity of glial cells to acyclovir (survival, FIG. 2) [4]	IC50 (cells carrying HSV-TK)	IC50 [5]
Nc1nc2c(ncn2COC(CO)CO)c(=O)[nH]1 [GCV, 9-((2-hydroxy-1-(hydroxymethyl)ethoxy)methyl) guanine]	Significant tumor regression; also recorded: significantly smaller	about 50%	about 10%	two	3 of 12	62 mm^3	< 0.2 mm^3	no difference	No difference in survival	22%	7 of 32 and 7/32	highly significant difference; also recorded: significant improvement in survival	failed to detect any tumor nodules	< 0.2 mm^3	0.6-2.0 mm^3	rejected repeat tumor injections; also recorded: absence of growth of injected tumor cells; also recorded: inhibition of growth of the injected tumor cells	not seen	–	–	–
Nc1nc2c(ncn2COCCO)c(=O)[nH]1 [acyclovir, 9-((2-hydroxyethoxy)methyl)guanine]	–	–	–	–	–	–	–	–	–	–	–	–	–	–	–	–	–	sensitive	0.5 µg/mL (≈ 2.22 µM)	> 10 µg/mL
